These results are taken from US7981878B2, “Tumor treatment with gliotoxin derivatives” (priority 2005, dated 2011).

pIC50: −log10 of the molar value.

Assay [1] relates to K 562, U 937, HCT-15, HCT-116, SW946, LX-1, P 388, colon-26 cell lines. The conditions noted are these: as indicated in EP 926 242 A1; cited from earlier work.
A further assay has as its target γ-secretase. The conditions noted are these: γ-secretase inhibitor; cited from earlier work.
In another assay the test system is Notch2 (N2^IC). As to the kind of experiment: Nuclear Notch2 activity in B-CLL cells by EMSA (band shift assay). The assay is classed as cell-based, human. The note with it: B-CLL cell cultures incubated with 50 nM Dapt. The procedure: FIG. 3: Gliotoxin is a potent Notch2 trans-activation inhibitor in B-CLL cells. (A) EMSA showing the inhibition of DNA-bound Notch2IC complexes in the presence of 0.2 μg Gliotoxin. B-CLL samples (n=10) were cultured in the presence of 1 ng/ml TPA with or without 0.2 μM Gliotoxin for 24 hours. Nuclear extracts were subjected to EMSA using a oligonucleotide probe spanning a well defined CBF1/NotchIC binding site derived from the CD23a promoter. (B). Corresponding FACS analysis (plus 10 additional B-CLL samples) showing the downregulation of the Notch2 target gene CD23 as well as the induction of apoptosis of Gliotoxin treated B-CLL samples. Columnes represent the percentage of CD19^+CD23^+ (grey bars) and apoptotic cells (black bars: including early apoptotic cells single positive for AnnexinV, and late apoptotic cells double positive for AnnexinV and probidium iodide), respectively.
As drug screening model, a cell culture system was established which conserves the phenotype of freshly isolated B-CLL cells (3×10^6 B-CLL cells/ml RPMI medium+10% FCS, supplemented with 1 ng/ml of TPA). Notch2 activity in the cell nucleus is determined by means of EMSA (electrophoretic mobility shift assay) experiments, and the cell viability (Probidium iodide/annexinV) and CD23 expression (Notch2 target gene) is determined by means of FACS (flow cytometry) analyses, respectively. […]
For orientation: Mobility shift assays separate free from complexed probe on a gel.

For the compound acetylgliotoxin, in assay [1], the “efficacy against tumour cell lines” value is “effective”.
Regarding `C[C@H](NC(=O)Cc1cc(F)cc(F)c1)C(=O)N[C@H](C(=O)OC(C)(C)C)c1ccccc1` [Dapt, reference compound], at γ-secretase, the pIC50 (in general, the IC50 on a negative log10 scale, so that one unit is a factor of ten) was 8.00 to 8.30. In addition, in the assay with Notch2 (N2^IC), the “influence on the activity of N2^IC” value is given as “no influence”.
